# Source: ChEMBL document CHEMBL3865781, “Recent advances in the discovery and development of antibacterial agents targeting the cell-division protein FtsZ” (Bioorg Med Chem, 2016)
# pIC50: −log10 of the molar value.
# Tested on: Escherichia coli
# Assay: Antibacterial activity against Escherichia coli ATCC 25922 after 18 hrs by broth microdilution method
# Type: functional
# Details: ATCC 25922, 18 h
row,Structure (SMILES),MIC
1,O=c1ccc2ccccc2o1 [COUMARIN],32 to 128 µg/mL
2,O=c1ccc2ccc(O)c(O)c2o1 [DAPHNETIN],32 to 128 µg/mL
3,COc1cc2cc3c4cc(-c5ccc(-c6ccccc6)cc5)c(OC)c(OC)c4cc[n+]3c(C(C)C)c2cc1OC,32 to 128 µg/mL
4,COc1cc(OC)c(OC)cc1/C=C/C(=O)O,32 to 128 µg/mL
5,O=C(O)/C=C/c1ccccc1 [CINNAMIC ACID],32 to 128 µg/mL
6,Oc1cc(O)c2c(c1)C/C(Cl)=C\Cc1cc(c(Cl)cc1O)Oc1c(O)cc(cc1O)C/C(Cl)=C\Cc1cc(c(Cl)cc1O)O2,32 to 128 µg/mL
7,COc1cc(/C=C/C(=O)O)ccc1O [FERULATE],32 to 128 µg/mL

# Tested on: Staphylococcus aureus
# Assay: Antibacterial activity against methicillin-resistant Staphylococcus aureus ATCC BAA-41 after 18 hrs by broth microdilution method
# Type: functional
# Details: ATCC BAA-41, 18 h
row,Structure (SMILES),MIC
1,O=c1ccc2ccccc2o1 [COUMARIN],2 to 8 µg/mL
2,O=c1ccc2ccc(O)c(O)c2o1 [DAPHNETIN],2 to 8 µg/mL
3,COc1cc2cc3c4cc(-c5ccc(-c6ccccc6)cc5)c(OC)c(OC)c4cc[n+]3c(C(C)C)c2cc1OC,2 to 8 µg/mL
4,COc1cc(OC)c(OC)cc1/C=C/C(=O)O,2 to 8 µg/mL
5,O=C(O)/C=C/c1ccccc1 [CINNAMIC ACID],2 to 8 µg/mL
6,Oc1cc(O)c2c(c1)C/C(Cl)=C\Cc1cc(c(Cl)cc1O)Oc1c(O)cc(cc1O)C/C(Cl)=C\Cc1cc(c(Cl)cc1O)O2,2 to 8 µg/mL
7,COc1cc(/C=C/C(=O)O)ccc1O [FERULATE],2 to 8 µg/mL

# Tested on: not listed separately
# Assay: Inhibition of Escherichia coli FtsZ polymerization expressed in Escherichia coli BL21 assessed as reduction in light scattering intensity in presence of GTP by fluorescence spectrometric analysis
# Details: not given
row,Structure (SMILES),pIC50
1,O=c1ccc2ccc(O)c(O)c2o1 [DAPHNETIN],4.14
2,COc1cc(OC)c(OC)cc1/C=C/C(=O)O,3.83
3,O=C(O)/C=C/c1ccccc1 [CINNAMIC ACID],3.62

# Tested on: not listed separately
# Assay: Inhibition of Escherichia coli FtsZ GTPase activity expressed in Escherichia coli BL21 preincubated for 5 mins followed by GTP addition after 15 mins by malachite green based spectrophotometric analysis
# Details: not given
row,Structure (SMILES),pIC50
1,O=c1ccc2ccc(O)c(O)c2o1 [DAPHNETIN],4.24

# Tested on: Enterococcus faecalis
# Assay: Antimicrobial activity against vancomycin-sensitive Enterococcus faecalis after 18 hrs by broth microdilution method
# Type: functional
# Details: not given
row,Structure (SMILES),MIC
1,O=c1ccc2ccccc2o1 [COUMARIN],4 to 16 µg/mL
2,O=c1ccc2ccc(O)c(O)c2o1 [DAPHNETIN],4 to 16 µg/mL
3,COc1cc2cc3c4cc(-c5ccc(-c6ccccc6)cc5)c(OC)c(OC)c4cc[n+]3c(C(C)C)c2cc1OC,4 to 16 µg/mL
4,COc1cc(OC)c(OC)cc1/C=C/C(=O)O,4 to 16 µg/mL
5,O=C(O)/C=C/c1ccccc1 [CINNAMIC ACID],4 to 16 µg/mL
6,Oc1cc(O)c2c(c1)C/C(Cl)=C\Cc1cc(c(Cl)cc1O)Oc1c(O)cc(cc1O)C/C(Cl)=C\Cc1cc(c(Cl)cc1O)O2,4 to 16 µg/mL
7,COc1cc(/C=C/C(=O)O)ccc1O [FERULATE],4 to 16 µg/mL

# Tested on: Klebsiella pneumoniae
# Assay: Antibacterial activity against Klebsiella pneumoniae ATCC BAA-1144 after 18 hrs by broth microdilution method
# Type: functional
# Details: ATCC BAA-1144, 18 h
row,Structure (SMILES),MIC
1,O=c1ccc2ccccc2o1 [COUMARIN],32 to 128 µg/mL
2,O=c1ccc2ccc(O)c(O)c2o1 [DAPHNETIN],32 to 128 µg/mL
3,COc1cc2cc3c4cc(-c5ccc(-c6ccccc6)cc5)c(OC)c(OC)c4cc[n+]3c(C(C)C)c2cc1OC,32 to 128 µg/mL
4,COc1cc(OC)c(OC)cc1/C=C/C(=O)O,32 to 128 µg/mL
5,O=C(O)/C=C/c1ccccc1 [CINNAMIC ACID],32 to 128 µg/mL
6,Oc1cc(O)c2c(c1)C/C(Cl)=C\Cc1cc(c(Cl)cc1O)Oc1c(O)cc(cc1O)C/C(Cl)=C\Cc1cc(c(Cl)cc1O)O2,32 to 128 µg/mL
7,COc1cc(/C=C/C(=O)O)ccc1O [FERULATE],32 to 128 µg/mL

# Tested on: Staphylococcus aureus
# Assay: Antibacterial activity against methicillin-sensitive Staphylococcus aureus after 18 hrs by broth microdilution method
# Type: functional
# Details: not given
row,Structure (SMILES),MIC
1,O=c1ccc2ccccc2o1 [COUMARIN],2 to 8 µg/mL
2,O=c1ccc2ccc(O)c(O)c2o1 [DAPHNETIN],2 to 8 µg/mL
3,COc1cc2cc3c4cc(-c5ccc(-c6ccccc6)cc5)c(OC)c(OC)c4cc[n+]3c(C(C)C)c2cc1OC,2 to 8 µg/mL
4,COc1cc(OC)c(OC)cc1/C=C/C(=O)O,2 to 8 µg/mL
5,O=C(O)/C=C/c1ccccc1 [CINNAMIC ACID],2 to 8 µg/mL
6,Oc1cc(O)c2c(c1)C/C(Cl)=C\Cc1cc(c(Cl)cc1O)Oc1c(O)cc(cc1O)C/C(Cl)=C\Cc1cc(c(Cl)cc1O)O2,2 to 8 µg/mL
7,COc1cc(/C=C/C(=O)O)ccc1O [FERULATE],2 to 8 µg/mL

# Tested on: Bacillus subtilis
# Assay: Antibacterial activity against Bacillus subtilis
# Type: functional
# Details: not given
row,MIC,Structure (SMILES)
1,13 µM,O=C(Oc1cc(OC(=O)c2ccc(O)c(Cl)c2)c2ccccc2c1)c1ccc(O)c(Cl)c1
